US4192871A, “Chemical compounds” (Glaxo Laboratories Limited, priority 1976, dated 1980)

Tests used:
pH of the salt solutions = format: physicochemical
Experimental: (§1) A solution of the above free base (492 mg; 1 mmole) in ethanol (10 ml) was treated with a solution (10 ml) of M/10 citric acid in ethanol water (9:1) and the mixture evaporated in vacuo at low temperature to afford a froth.
(§2) Table 5 summarises the properties and preparation of salts of the invention by one of the following methods:
(§3) A. The 11β-aminoester (1 part) was added to a solution of the acid (1 molar part) in water and the mixture stirred or shaken until a clear solution was obtained. The solution was made up with water to the weight indicated, filtered through a membrane and the pH determined.
(§4) B. The 11β-aminoester (1 part) was added to a solution of the acid (1 molar part) in water and the mixture stirred or shaken. As free base remained undissolved, further acid was added and the mixture agitated again. The solution was made up with water to the weight indicated and any material which then remained undissolved was collected in a weighed funnel and the weight of free base dissolved calculated and the pH of the solution measured.
(§5) C. A mixture of the 11β-aminoester (1 part), a 0.1 M solution of the acid (1 molar part) and ethanol was evaporated in vacuo and dried to constant weight. The residue was dissolved in a little water and any material which then remained undissolved collected in a weighed funnel and the weight of free base dissolved calculated. The solution was made up with water to the weight indicated and its pH measured.
(§6) D. The 11β-aminoester (1 part) was added to a solution of the acid (1 molar part) in water and the mixture stirred or shaken. The solution was made up with water to the weight indicated. The material remaining undissolved was collected in a weighed funnel and the weight of free base dissolved calculated and the pH of the solution measured.
(§7) E. As in method C except that further acid was added to the residue after addition of the small amount of water.
11β-N,N-Diethylaminoacetoxy-2β-ethoxy-3α-hydroxy-5α-pregnan-20-one (1.45 g) was agitated with citric acid monohydrate (621 mg) in 0.9% w/v sodium chloride solution (steriflex^(R)) (130 ml.) at 20° for 16.5 hours. The resulting solution was stirred at 21° and N/5 sodium hydroxide solution in steriflex^(R) (10.5 ml) was added dropwise during 30 minutes, raising the pH from 3.63 to 4.52. The solution was diluted to 162.5 g so that the concentration of steroid was 9 mg/ml. The solution of the citrate was filtered through a membrane and finally filtered into 8 sterile ampoules.
11β-(N-Butyl-N-ethylaminoacetoxy)-3α-hydroxy-5α-pregnan-20-one (1.80 g) was agitated with citric acid monohydrate (793 mg) in 0.9% w/v sodium chloride solution (steriflex^(R)) (160 ml) at 20° for 19.5 hours. The resulting solution was slightly cloudy. This solution was stirred at 21° and N/5 sodium hydroxide solution in steriflex^(R) (5.8 ml) was added dropwise during 15 minutes, raising the pH from 3.62 to 4.00. The solution was diluted to 201.2 g so that the concentration of steroid was 9 mg/ml. The cloudiness was removed by filtration through a membrane and the clear solution of the citrate was filtered into 8 sterile ampoules.
Sodium iodide (0.250 g) and diethylamine (0.5 ml) were added to a solution of 11β-chloroacetoxy-2β-ethoxy-3α-hydroxy-D-homo-5α-pregnan-20-one (0.250 g) in acetone (10 ml) and the mixture was left at room temperature for 3 days during which time a white solid precipated. Water was added and the yellow solution was concentrated in vacuo whereupon crystallisation occurred. The needles were filtered off and washed well with acetone/water yielding the title compound (0.201 g), m.p. 160°-73°, [α]D +60.8°. The above base (0.101 g) was stirred with citric acid monohydrate (0.042 g) in water (9.5 ml) for 21 hours. The solution was made up to 10.1 g by weight. The solid remaining out of solution was filtered off, dried and weighed. The solution was passed through a millipore filter giving an aqueous solution of the title compound, concentration 9.75 mg/ml, pH 3.66. […]

[1] = dissolution of the 11β-aminoester salts in aqueous acid (Table 5 and Examples 101, 225-229); format: physicochemical
Experimental: as §1, §2, §3, §4, §5, §6, §7
The solid citric acid used was as its monohydrate.
Sodium iodide (0.250 g) and diethylamine (0.5 ml) were added to a solution of 11β-chloroacetoxy-2β-ethoxy-3α-hydroxy-D-homo-5α-pregnan-20-one (0.250 g) in acetone (10 ml) and the mixture was left at room temperature for 3 days during which time a white solid precipated. Water was added and the yellow solution was concentrated in vacuo whereupon crystallisation occurred. The needles were filtered off and washed well with acetone/water yielding the title compound (0.201 g), m.p. 160°-73°, [α]D +60.8°. The above base (0.101 g) was stirred with citric acid monohydrate (0.042 g) in water (9.5 ml) for 21 hours. The solution was made up to 10.1 g by weight. The solid remaining out of solution was filtered off, dried and weighed. The solution was passed through a millipore filter giving an aqueous solution of the title compound, concentration 9.75 mg/ml, pH 3.66.
The above base (0.096 g) was stirred in a solution of citric acid monohydrate (0.038 g) in water (8.5 ml) for 20 hours. A large proportion of the steroid remained out of solution. More citric acid (0.038 g) was added and the mixture stirred for a further 6 hours. The solution was made up to 9.6 g by weight and the solid remaining out of solution was filtered off, dried and weighed. The solution was passed through a millipore filter giving an aqueous solution of the title compound, concentration 9.5 mg/ml, pH 2.85.
To a solution of citric acid monohydrate (52.5 mg) in water (2 ml) was added the above free base (115 mg). More water (8 ml) was added and the mixture was stirred for 72 hrs. A small amount of steroid remained out of solution and more citric acid (52.5 mg) was added. Within 5 mins. a clear solution was obtained which was made up to 11.5 g with water and filtered through a millipore filter yielding an aqueous solution of the title citrate, concentration 10 mg/ml, pH 3.0.
The above free base (112 mg) was added to a solution of citric acid monohydrate (52.5 mg) in water (2 ml). More water (8 ml) was added and the mixture was swirled from time to time. […]

[2] = aqueous solution of the salt, Table 5
[3] = method A: clear solution, 1 molar part acid, made up with water to WT. of solution 10 g, except Ex. 121 and 150: 12, 123: 12.3, 124: 7.5, 129: 10.3, 135 and 139: 8.95, 164: 10.35, 170: 10.4, 181: 10.04, 187: 9.5, 210: 10.2, 221: 15 g
[4] = method C: ethanol evaporated, residue in water, undissolved material weighed, WT. of solution Ex. 118: 10, 120: 10.4, 148: 9.54, 152: 5.6, 154: 9.1, 155: 8.77, 156: 9.06, 157: 9.5, 158: 9.38, 159: 9.17, 179: 9.65, 180: 11.7, 182: 4.9, 202: 12.05, 213: 12, 214: 11.5, 215: 11.1, 216: 11.6, 217: 12.1 g
[5] = method B: further acid added, undissolved material weighed, WT. of solution 10 g, except Ex. 130 and 141: 9.2, 142: 9.23, 143, 144, 189 and 199: 9.8, 149: 10.6, 153: 7.9, 162 and 188: 9.5, 163: 68, 166: 10.4, 168: 10.7, 169: 10.9, 183: 8.05, 184 and 201: 9.83, 185: 7.1, 186: 9.3, 192: 10.07, 193: 6.4, 195: 6.8, 196: 7, 197: 7.2, 200: 10.1, 206: 15 g

SMILES | pH (pH of the salt solutions; [2]) | Dissolved aminoester [1, 3] [mg] | also measured
CCO[C@H]1C[C@@]2(C)[C@@H](CC[C@@H]3[C@@H]2[C@@H](OC(=O)CN(CC)CC)C[C@]2(C)[C@@H](C(C)=O)CC[C@@H]32)C[C@@H]1O.O=C(O)CC(O)(CC(=O)O)C(=O)O [Example 101 citrate salt, 11β-N,N-Diethylaminoacetoxy-2β-ethoxy-3α-hydroxy-5α-pregnan-20-one, citrate salt] |  |  | pH (pH of the salt solutions; solution in 0.9% w/v saline, pH adjusted with sodium hydroxide solution): 4.52; pH (pH of the salt solutions; solution of the salt in saline, before any adjustment, citrate salt): 3.5; pH (pH of the salt solutions; solution of the salt in saline, before any adjustment, listed as Example 223, citrate salt): 3.63; dissolution in saline ([1]; citrate salt froth, in saline): dissolved readily in saline
CCN(C)CC(=O)O[C@H]1C[C@]2(C)[C@@H](C(C)=O)CC[C@H]2[C@@H]2CC[C@H]3C[C@H](O)CC[C@]3(C)[C@H]21 [Example 116] | 3.63 | 100 | 
CCCN(C)CC(=O)O[C@H]1C[C@]2(C)[C@@H](C(C)=O)CC[C@H]2[C@@H]2CC[C@H]3C[C@H](O)CC[C@]3(C)[C@H]21 [Example 117] | 3.4 | 100 | 
C=CCN(CC=C)CC(=O)O[C@H]1C[C@]2(C)[C@@H](C(C)=O)CC[C@H]2[C@@H]2CC[C@H]3C[C@H](O)CC[C@]3(C)[C@H]21 [Example 118] | 2.55 |  | Dissolved aminoester [1, 4]: 38 mg
CC(=O)[C@H]1CC[C@H]2[C@@H]3CC[C@H]4C[C@H](O)CC[C@]4(C)[C@H]3[C@@H](OC(=O)CN(C)Cc3ccccc3)C[C@]12C [Example 119] | 2.7 |  | Dissolved aminoester [1, 5]: 73 mg
CCCN(CCC)CC(=O)O[C@H]1C[C@]2(C)[C@@H](C(C)=O)CC[C@H]2[C@@H]2CC[C@H]3C[C@H](O)[C@@H](OCC)C[C@]3(C)[C@H]21 [Example 120] | 3.5 |  | Dissolved aminoester [1, 4]: 87 mg
CCCCN(C)CC(=O)O[C@H]1C[C@]2(C)[C@@H](C(C)=O)CC[C@H]2[C@@H]2CC[C@H]3C[C@H](O)[C@@H](OCC)C[C@]3(C)[C@H]21 [Example 121] | 3.65 | 120 | 
CCCO[C@H]1C[C@@]2(C)[C@@H](CC[C@@H]3[C@@H]2[C@@H](OC(=O)CN(CC)CC)C[C@]2(C)[C@@H](C(C)=O)CC[C@@H]32)C[C@@H]1O [Example 122] |  |  | pH (pH of the salt solutions; solution of the salt in saline, before any adjustment): 3.5; Dissolved aminoester ([1]; method A, 0.9% w/v saline in place of water, WT. of solution Ex. 122: 37.5 g, 222: 50 g): 375 mg
CO[C@H]1C[C@@]2(C)[C@@H](CC[C@@H]3[C@@H]2[C@@H](OC(=O)CN2CCCCC2)C[C@]2(C)[C@@H](C(C)=O)CC[C@@H]32)C[C@@H]1O [Example 123] | 3.6 | 122 | 
CCN(CC)CC(=O)O[C@H]1C[C@]2(C)[C@@H](C(C)=O)CC[C@H]2[C@@H]2CC[C@H]3C[C@H](O)[C@@H](OC)C[C@]3(C)[C@H]21 [Example 124] | 3.65 | 75 | 
COC(=O)[C@H]1CC[C@H]2[C@@H]3CC[C@H]4C[C@H](O)CC[C@]4(C)[C@H]3[C@@H](OC(=O)CN3CCCCC3)C[C@]12C [Example 125] | 2.82 |  | Dissolved aminoester [1, 5]: 98 mg
CC(=O)[C@H]1CC[C@H]2[C@@H]3CC[C@H]4C[C@H](O)CC[C@]4(C)[C@H]3[C@@H](OC(=O)CN(C)CCc3ccccc3)C[C@]12C [Example 126] | 2.65 |  | Dissolved aminoester [1, 5]: 56 mg
CC(=O)[C@H]1CC[C@H]2[C@@H]3CC[C@H]4C[C@H](O)CC[C@]4(C)[C@H]3[C@@H](OC(=O)CN(C)C3CCCCC3)C[C@]12C [Example 127] | 3.62 | 100 | 
CC(=O)[C@H]1CC[C@H]2[C@@H]3CC[C@H]4C[C@H](O)CC[C@]4(C)[C@H]3[C@@H](OC(=O)CN3CCCCCCC3)C[C@]12C [Example 128] | 2.65 |  | Dissolved aminoester [1, 5]: 68 mg
CCC(C)CNCC(=O)O[C@H]1C[C@]2(C)[C@@H](C(C)=O)CC[C@H]2[C@@H]2CC[C@H]3C[C@H](O)CC[C@]3(C)[C@H]21 (some centres unmarked) [Example 129] | 3.64 | 92.3 | 
CCCCCNCC(=O)O[C@H]1C[C@]2(C)[C@@H](C(C)=O)CC[C@H]2[C@@H]2CC[C@H]3C[C@H](O)CC[C@]3(C)[C@H]21 [Example 130] | 3.12 |  | Dissolved aminoester [1, 5]: 80 mg
CCN(CC)CC(=O)O[C@H]1C[C@]2(C)[C@@H](C(C)=O)CC[C@H]2[C@@H]2CC[C@H]3C[C@](C)(O)CC[C@]3(C)[C@H]21 [Example 131] | 3.55 | 100 | 
CCCN(CCC)CC(=O)O[C@H]1C[C@]2(C)[C@@H](C(C)=O)CC[C@H]2[C@@H]2CC[C@H]3C[C@](C)(O)CC[C@]3(C)[C@H]21 [Example 132] | 3.4 | 100 | 
